Reference: patent US20070026080A1, “Manufacturing process for tigecycline” (Wyeth, priority 2005, published 2007)
Where “and” joins values, the source holds several entries; their conditions need not be identical. Equal entries are not always repeated. Marks after values point to notes of the source that are not given here.

Assay: Strength and degradation profile of tigecycline 20 mg/mL bulk solutions by reversed phase HPLC (effect of temperature, time, pH, dissolved oxygen; Runs A to O)
Format: physicochemical
Details: 20 mg/mL
Method: The contents of the sample vials are dissolved in diluent. The sample solution is diluted, if necessary, and chromatographed on a reversed phase column using gradient elution. Impurities are determined by comparing the impurity peak areas in the sample preparation chromatogram to the average area of tigecycline peaks in the standard preparation chromatograms obtained concomitantly.
Chromatographic Column—Length about 15 cm, inside diameter about 4.6 mm, packed with Inertsil ODS2, 5 μm size particles or equivalent.
Detector—Ultraviolet spectrophotometric detector capable of operating at 248 nm with a sensitivity of about 0.5 absorbance units full scale.
The results of additional studies to investigate the effect of processing parameters such as temperature, time, and dissolved oxygen content on the purity profile of tigecycline solutions using the following materials, methods and procedures are presented in Tables A to O.
The experiments were run in plastic glove bags under normal laboratory light conditions. Plastic glove boxes will be used to control the headspace of the beakers. The batch size was 200 mL. • 1. Prepare the glove bag with a mixture of nitrogen and air to achieve an oxygen level in the solution as per the design. • 2. Place the jacketed beaker on the magnetic stirrer. Connect it to the cooler. Set the cooler to the desired set point. • 3. Add 200 mL of SWFI in to the beaker. Allow equilibrating. Measure the temperature and oxygen content. When it reaches the desired condition, add accurately weighed API and mix until dissolved. If necessary use spatula to aid dissolution. For pH adjustments, use 4 mL of either 0.1N NaOH or 0.1N HCl and 196 mL of WFI for manufacture. • 4. After complete dissolution, Transfer about 5.5 mL of Solution in vials and stopper them. These vials will be stoppered at the appropriate headspace conditions. Place the vials in appropriate temperature conditions. • 5. Sample the vials at 1, 4, 8, 10, 12 and 24 hours. Send the samples for analysis. Freeze the 10, 12 and 24 samples at −20° C. for analysis the following day. • 6. Measure pH and record color of the solution at each time point. Results
The 1-hour samples were taken directly from the beakers. Samples for later time points were collected in stoppered vials processed in the atmosphere of the bag in order to simulate the headspace conditions then placed in water baths or refrigerator to maintain there respective temperature conditions. This was done to maintain safety in the lab. Disposable plastic glove bags require constant flow of a mixture of nitrogen and air to maintain headspace oxygen level that will result in the desired dissolved oxygen (DO) content in the sample. The pH of samples was measured at each sample points.
Strength and degradation profile was analyzed by HPLC as described above. […] Degradation was slightly higher at higher temperature condition.

[1] = Run #D, 8° C., pH 7.7, Oxygen 2.0 mg/L, hours 1,4,8,10,12,24 at r6-r11, after 4 hours
[2] = Run #D, 8° C., pH 7.7, Oxygen 2.0 mg/L, hours 1,4,8,10,12,24 at r6-r11, after 8 hours
[3] = Run #D, 8° C., pH 7.7, Oxygen 2.0 mg/L, hours 1,4,8,10,12,24 at r6-r11, after 10 hours
[4] = Run #D, 8° C., pH 7.7, Oxygen 2.0 mg/L, hours 1,4,8,10,12,24 at r6-r11, after 12 hours
[5] = Run #D, 8° C., pH 7.7, Oxygen 2.0 mg/L, hours 1,4,8,10,12,24 at r6-r11, after 24 hours
[6] = Run #D, 8° C., pH 7.7, Oxygen 2.0 mg/L, hours 1,4,8,10,12,24 at r17-r22, after 1 hours
[7] = Run #D, 8° C., pH 7.7, Oxygen 2.0 mg/L, hours 1,4,8,10,12,24 at r17-r22, after 4 hours
[8] = Run #D, 8° C., pH 7.7, Oxygen 2.0 mg/L, hours 1,4,8,10,12,24 at r17-r22, after 8 hours
[9] = Run #D, 8° C., pH 7.7, Oxygen 2.0 mg/L, hours 1,4,8,10,12,24 at r17-r22, after 10 hours
[10] = Run #D, 8° C., pH 7.7, Oxygen 2.0 mg/L, hours 1,4,8,10,12,24 at r17-r22, after 12 hours
[11] = Run #D, 8° C., pH 7.7, Oxygen 2.0 mg/L, hours 1,4,8,10,12,24 at r17-r22, after 24 hours
[12] = Run #E, 5° C., Oxygen = 2.0 mg/mL, hours 1,4,8,12,24 at r6-r10
[13] = Run #E, 5° C., Oxygen = 2.0 mg/mL, hours 1,4,8,12,24 at r16-r20, 1 hours
[14] = Run #E, 5° C., Oxygen = 2.0 mg/mL, hours 1,4,8,12,24 at r16-r20, 4 hours
[15] = Run #E, 5° C., Oxygen = 2.0 mg/mL, hours 1,4,8,12,24 at r16-r20, 8 hours
[16] = Run #E, 5° C., Oxygen = 2.0 mg/mL, hours 1,4,8,12,24 at r16-r20, 12 hours
[17] = Run #E, 5° C., Oxygen = 2.0 mg/mL, hours 1,4,8,12,24 at r16-r20, 24 hours
[18] = Run #F, 2° C., hours 1,4,8,12,24 at r5-r9, 1 h after preparation
[19] = Run #F, 2° C., hours 1,4,8,12,24 at r5-r9, 4 h after preparation

CN(C)c1cc(NC(=O)CNC(C)(C)C)c(O)c2c1C[C@H]1C[C@H]3[C@H](N(C)C)C(O)=C(C(N)=O)C(=O)[C@@]3(O)C(O)=C1C2=O [Tigecycline]
Strength (Run #D, 8° C., pH 7.7, Oxygen 2.0 mg/L, hours 1,4,8,10,12,24 at r6-r11, after 1 hours): 19.168 mg/mL | RRT 0.55 MW = 583 [1]: 0.16% | RRT 0.74 Epimer [1]: 0.18% | Strength [1]: 18.918 mg/mL | RRT 0.55 MW = 583 [2]: 0.23% | Strength [2]: 18.915 mg/mL | RRT 0.55 MW = 583 [3]: 0.27% | RRT 0.74 Epimer [3]: 0.25% | Strength [3]: 19.292 mg/mL | RRT 0.55 MW = 583 [4]: 0.29% | RRT 0.74 Epimer [4]: 0.24% | Strength [4]: 18.728 mg/mL | RRT 0.55 MW = 583 [5]: 0.36% | RRT 0.74 Epimer [5]: 0.27% | Strength [5]: 18.050 mg/mL | RRT 1.45 [6]: 0.07% | RRT 1.67 MW = 556 [6]: 0.10% | RRT 1.85 MW = 597 [6]: 0.08% | Total [6]: 0.65% | RRT 1.45 [7]: 0.19% | RRT 1.67 MW = 556 [7]: 0.21% | Total [7]: 1.09% | RRT 1.45 [8]: 0.06% | RRT 1.67 MW = 556 [8]: 0.37% | RRT 1.85 MW = 597 [8]: 0.14% | Total [8]: 1.57% | RRT 1.67 MW = 556 [9]: 0.24% | Total [9]: 2.27% | RRT 1.45 [10]: 0.10% | RRT 1.67 MW = 556 [10]: 0.28% | RRT 1.85 MW = 597 [10]: 0.09% | Total [10]: 2.47% | RRT 1.67 MW = 556 [11]: 0.51% | RRT 1.85 MW = 597 [11]: 0.10% | Total [11]: 4.32% | RRT 0.55 MW = 583 [12]: 0.43% and 0.07% and 0.17% and 0.22% and 0.33% | Strength [12]: 17.950 mg/mL and 19.261 mg/mL and 19.215 mg/mL and 18.970 mg/mL and 18.475 mg/mL | RRT 0.58 [13]: 0.08% | RRT 0.74 Epimer [13]: 0.16% | RRT 0.76 [13]: 0.05% | RRT 1.45 [13]: 0.08% | RRT 1.85 MW = 597 [13]: 0.08% | Total [13]: 0.67% | RRT 0.58 [14]: 0.07% | RRT 0.74 Epimer [14]: 0.17% | RRT 1.85 MW = 597 [14]: 0.07% | Total [14]: 0.96% | RRT 0.74 Epimer [15]: 0.19% | RRT 0.76 [15]: 0.11% | RRT 1.45 [15]: 0.10% | RRT 1.85 MW = 597 [15]: 0.09% | Total [15]: 1.58% | RRT 0.74 Epimer [16]: 0.24% | RRT 0.76 [16]: 0.12% | RRT 1.85 MW = 597 [16]: 0.11% | Total [16]: 3.15% | RRT 0.58 [17]: 0.05% | RRT 0.74 Epimer [17]: 0.28% | RRT 0.76 [17]: 0.13% | RRT 1.45 [17]: 0.07% | RRT 1.85 MW = 597 [17]: 0.12% | Total [17]: 4.23% | RRT 1.67 MW = 556 (Run #E, 5° C., Oxygen = 2.0 mg/mL, hours 1,4,8,12,24 at r16-r20, at 24 h Mino is co-eluting, 1 hours): 0.08% | RRT 1.67 MW = 556 (Run #E, 5° C., Oxygen = 2.0 mg/mL, hours 1,4,8,12,24 at r16-r20, at 24 h Mino is co-eluting, 4 hours): 0.16% | RRT 1.67 MW = 556 (Run #E, 5° C., Oxygen = 2.0 mg/mL, hours 1,4,8,12,24 at r16-r20, at 24 h Mino is co-eluting, 8 hours): 0.26% | RRT 1.67 MW = 556 (Run #E, 5° C., Oxygen = 2.0 mg/mL, hours 1,4,8,12,24 at r16-r20, at 24 h Mino is co-eluting, 12 hours): 0.39% | RRT 1.67 MW = 556 (Run #E, 5° C., Oxygen = 2.0 mg/mL, hours 1,4,8,12,24 at r16-r20, at 24 h Mino is co-eluting, 24 hours): 0.44^a % | Strength (Run #F, 2° C., Oxygen = 1.0 mg/mL, hours 1,4,8,12,24 at r5-r9, 1 h after preparation): 18.733 mg/mL | Strength (Run #F, 2° C., Oxygen = 1.0 mg/mL, hours 1,4,8,12,24 at r5-r9, 4 h after preparation): 18.700 mg/mL | Strength (Run #F, 2° C., Oxygen = 1.0 mg/mL, hours 1,4,8,12,24 at r5-r9, 8 h after preparation): 18.729 mg/mL | Strength (Run #F, 2° C., Oxygen = 1.0 mg/mL, hours 1,4,8,12,24 at r5-r9, 12 h after preparation): 18.543 mg/mL | Strength (Run #F, 2° C., Oxygen = 1.0 mg/mL, hours 1,4,8,12,24 at r5-r9, 24 h after preparation): 18.818 mg/mL | RRT 0.58 [18]: 0.08% | RRT 0.74 Epimer [18]: 0.15% | RRT 1.45 [18]: 0.07% | RRT 1.64 Mino [18]: 0.10% | RRT 1.85 MW = 597 [18]: 0.07% | Total [18]: 0.47% | RRT 0.58 [19]: 0.07% | RRT 0.74 Epimer [19]: 0.16% | RRT 1.64 Mino [19]: 0.09% | RRT 1.85 MW = 597 [19]: 0.09% | Total [19]: 0.71% | RRT 0.74 Epimer (Run #F, 2° C., hours 1,4,8,12,24 at r5-r9, 8 h after preparation): 0.17%
